Data from US11072614B2, “Polymorphs of sepiapterin and salts thereof” (PTC Therapeutics MP, Inc., priority 2016, dated 2021).

Experiments:
Format in all cases: physicochemical
[1] = Storage stability study of solid forms, form change by XRD (Example 11)
Experimental: For X-ray powder diffraction analysis, a PANalytical Empyrean X-ray powder diffractometer was used. The parameters are as follows:
(§1) Form A and F samples were placed in chambers with silica gel to remove water (the relative humidity was measured to be ˜10% RH) at different temperatures. Form D samples were placed in chambers with water (relative humidity was estimated to be ˜100% RH) at different temperatures.
(§2) The HPLC purities and XRD patterns were obtained for each of Form A/F/D samples stored at various temperatures.

[2] = Physical form stability to grinding and sieving (XRD before and after)
Experimental: A sample of sepiapterin free base was obtained commercially. […] The sepiapterin sample contained particles with an average particle size over 100 μm. The XRD pattern was determined before and after grinding to reduce the particle size such that it passes through a 140 mesh screen. This polymorph of sepiapterin free base is referred to as Form A herein.

[3] = Storage stability study of solid forms, HPLC purity (Example 11)
Experimental: as §1, §2

[4] = Storage stability of polymorphs, HPLC sepiapterin and impurity profile (Example 12); set-up: Impurity RRT 1.06 / Impurity RRT 1.08 / Impurity RRT 1.17 / Impurity RRT 1.21 / Impurity RRT 1.25 / Impurity RRT 0.62 / Impurity RRT 0.89 / Impurity RRT 0.95 / Impurity RRT 0.60: unit not given here; details: for stability compared with polymorph A (in words): storage at RT, 35° C., 50° C., 1 w and 4 w
Experimental: Samples of sepiapterin free base polymorph Forms D, F, and A were stored at room temperature (RT), 35° C., and 50° C. The samples were analyzed by HPLC at 1 week and 4 week intervals. The HPLC parameters were as follows: [table]

[5] = 35° C., 100% RH, storage 1 week
[6] = 35° C., 100% RH, storage 4 weeks
[7] = 50° C., 100% RH, storage 1 week
[8] = 50° C., 100% RH, storage 4 weeks
[9] = 35° C., 10% RH, storage 4 weeks
[10] = 50° C., 10% RH, storage 4 weeks
[11] = 35° C./10% RH, 1 w, listed as Polymorph F
[12] = 35° C./10% RH, 4 w, listed as Polymorph F
[13] = 50° C./10% RH, 1 w, listed as Polymorph F
[14] = 50° C./10% RH, 4 w, listed as Polymorph F
[15] = RT/10% RH, 1 w, listed as Polymorph F
[16] = RT/10% RH, 4 w, listed as Polymorph F

## C[C@H](O)C(=O)C1=Nc2c(nc(N)[nH]c2=O)NC1 [Form D, sepiapterin]
[1]; [5]
  Form change: No
[1]; [6]
  Form change: No
[1]; [7]
  Form change: No
[1]; [8]
  Form change: No
[1]; RT, 100% RH, storage 1 week
  Form change: No
[1]; RT, 100% RH, storage 4 weeks
  Form change: No
[2]
  physical form stability to grinding and sieving: potential instability
[3]; [5]
  % of Initial: 99.7%
  Purity (area %): 98.8 area %
[3]; [6]
  % of Initial: 99.6%
  Purity (area %): 98.7 area %
[3]; [7]
  % of Initial: 99.3%
  Purity (area %): 98.5 area %
[3]; [8]
  % of Initial: 98.5%
  Purity (area %): 97.7 area %
[3]; RT, 100% RH, storage 1 week
  % of Initial: 99.9%
  Purity (area %): 99.0 area %
[3]; RT, 100% RH, storage 4 weeks
  % of Initial: 99.8%
  Purity (area %): 98.9 area %
[4]; 35° C./100% RH, 1 w
  Impurity RRT 0.62: <0.05
  Impurity RRT 0.95: 0.86
  Impurity RRT 1.08: 0.14
  Impurity RRT 1.17: 0.17
  Sepiapterin RRT 1.00 (amount of sepiapterin): 98.83%
[4]; 35° C./100% RH, 4 w
  Impurity RRT 0.62: 0.09
  Impurity RRT 0.95: 1.04
  Impurity RRT 1.08: <0.05
  Impurity RRT 1.17: 0.17
  Sepiapterin RRT 1.00 (amount of sepiapterin): 98.70%
[4]; 50° C./100% RH, 1 w
  Impurity RRT 0.62: 0.08
  Impurity RRT 0.95: 1.05
  Impurity RRT 1.08: 0.26
  Impurity RRT 1.17: 0.16
  Sepiapterin RRT 1.00 (amount of sepiapterin): 98.45%
[4]; 50° C./100% RH, 4 w
  Impurity RRT 0.62: 0.14
  Impurity RRT 0.95: 2.03
  Impurity RRT 1.08: <0.05
  Impurity RRT 1.17: 0.18
  Sepiapterin RRT 1.00 (amount of sepiapterin): 97.65%
[4]; Initial
  Impurity RRT 1.08: <0.05
  Impurity RRT 1.17: 0.17
[4]; Initial, listed as Polymorph D
  Impurity RRT 0.62: <0.05
  Impurity RRT 0.95: 0.69
  Sepiapterin RRT 1.00 (amount of sepiapterin): 99.14%
[4]; Initial, listed as polymorph D
  Sepiapterin RRT 1.00 (amount of sepiapterin): 99.14%
[4]; RT/100% RH, 1 w
  Impurity RRT 0.62: <0.05
  Impurity RRT 0.95: 0.83
  Impurity RRT 1.08: <0.05
  Impurity RRT 1.17: 0.16
  Sepiapterin RRT 1.00 (amount of sepiapterin): 99.01%
[4]; RT/100% RH, 4 w
  Impurity RRT 0.62: 0.09
  Impurity RRT 0.95: 0.81
  Impurity RRT 1.08: <0.05
  Impurity RRT 1.17: 0.17
  Sepiapterin RRT 1.00 (amount of sepiapterin): 98.92%
[4]
  stability compared with polymorph A (in words): significantly greater stability

## C[C@H](O)C(=O)C1=Nc2c(nc(N)[nH]c2=O)NC1 [Form F, sepiapterin]
[1]; 35° C., 10% RH, storage 1 week
  Form change: No
[1]; [9]
  Form change: No
[1]; 50° C., 10% RH, storage 1 week
  Form change: No
[1]; [10]
  Form change: No
[1]; RT, 10% RH, storage 1 week
  Form change: No
[1]; RT, 10% RH, storage 4 weeks
  Form change: No
[2]
  physical form stability to grinding and sieving: confirms the stability
[3]; 35° C., 10% RH, storage 1 week
  % of Initial: 99.7%
  Purity (area %): 99.4 area %
[3]; [9]
  % of Initial: 99.7%
  Purity (area %): 99.4 area %
[3]; 50° C., 10% RH, storage 1 week
  % of Initial: 99.4%
  Purity (area %): 99.2 area %
[3]; [10]
  % of Initial: 99.1%
  Purity (area %): 98.9 area %
[3]; RT, 10% RH, storage 1 week
  % of Initial: 99.7%
  Purity (area %): 99.4 area %
[3]; RT, 10% RH, storage 4 weeks
  % of Initial: 99.8%
  Purity (area %): 99.5 area %
[4]; 35° C./10% RH, 1 w
  Impurity RRT 0.60: <0.05
[4]; [11]
  Impurity RRT 0.95: 0.35
  Impurity RRT 1.08: 0.06
  Impurity RRT 1.17: 0.15
  Sepiapterin RRT 1.00 (amount of sepiapterin): 99.43%
[4]; 35° C./10% RH, 4 w
  Impurity RRT 0.60: <0.05
  Impurity RRT 1.08: <0.05
[4]; [12]
  Impurity RRT 0.95: 0.42
  Impurity RRT 1.17: 0.15
  Sepiapterin RRT 1.00 (amount of sepiapterin): 99.43%
[4]; 50° C./10% RH, 1 w
  Impurity RRT 0.60: <0.05
[4]; [13]
  Impurity RRT 0.95: 0.58
  Impurity RRT 1.08: 0.11
  Impurity RRT 1.17: 0.15
  Sepiapterin RRT 1.00 (amount of sepiapterin): 99.15%
[4]; 50° C./10% RH, 4 w
  Impurity RRT 0.60: 0.12
  Impurity RRT 1.17: 0.17
[4]; [14]
  Impurity RRT 0.95: 0.86
  Impurity RRT 1.08: <0.05
  Sepiapterin RRT 1.00 (amount of sepiapterin): 98.85%
[4]; 50° C./10% RH, 4 w, listed as polymorph F
  Sepiapterin RRT 1.00 (amount of sepiapterin): 98.85%
[4]; Initial
  Impurity RRT 0.60: <0.05
  Impurity RRT 1.08: <0.05
  Impurity RRT 1.17: 0.17
[4]; Initial, listed as Polymorph F
  Impurity RRT 0.95: 0.09
  Sepiapterin RRT 1.00 (amount of sepiapterin): 99.74%
[4]; Initial, listed as polymorph F
  Sepiapterin RRT 1.00 (amount of sepiapterin): 99.74%
[4]; RT/10% RH, 1 w
  Impurity RRT 0.60: <0.05
  Impurity RRT 1.17: 0.16
[4]; [15]
  Impurity RRT 0.95: 0.29
  Impurity RRT 1.08: 0.14
  Sepiapterin RRT 1.00 (amount of sepiapterin): 99.42%
[4]; RT/10% RH, 4 w
  Impurity RRT 0.60: <0.05
  Impurity RRT 1.08: <0.05
  Impurity RRT 1.17: 0.16
[4]; [16]
  Impurity RRT 0.95: 0.30
  Sepiapterin RRT 1.00 (amount of sepiapterin): 99.54%
[4]
  stability compared with polymorph A (in words): significantly greater stability
